# Marks after values point to notes of the source that are not given here.
# Tests used:
# Assay type in all cases: cell-based, human
# [1] = tested on: MDA-MB-231 (ER−); experiment: Apoptosis in breast cancer cell lines, CaspACE assay with flow cytometry; settings: Tamoxifen 100 μM, 16 hours
# Text: (§1) The apoptotic effect of CDME was compared to that of tamoxifen using the CaspACE™ assay system (Promega) and conventional flow cytometry techniques.
# (§2) All cell lines were obtained from the American Type Culture Collection, P.O. Box 1549, Manassas, Va., 20108 unless otherwise indicated. The cell lines studied were estrogen receptor-negative breast cancer cell lines MDA-MB-231 (ATCC Accession No. HTB-26) and MDA-MB-468 (ATCC Accession No. HTB-132) and estrogen receptor-positive breast cancer cell lines, MCF-7 (ATCC Accession No. HTB-22) and T-47D (ATCC Accession No. HTB-133).
# (§3) All cell lines were grown on the bottom of 12-well flasks in Gibco RPMI-1640, until they reached the confluency of about 50%. After that, the medium was exchanged with DMEM (Sigma, D-5030), supplemented with 10% charcoal-treated FBS.
# (§4) After four days (at confluency of about 75%), cells were treated by exposure to either CDME (500 μM) or tamoxifen (100 μM) or neither for 16 hours at 37° C. CaspACE™ assay analysis of the treated and control cells was performed as described in Example 2 and measured via flow cytometry. Note that the dosage of tamoxifen was a maximum positive control dose, higher than that normally administered for chemotherapy.
# [2] = tested on: MCF-7 (ER+); experiment: as above; settings: Tamoxifen 100 μM, 16 hours
# Text: as §1, §2, §3, §4
# [3] = tested on: T-47D (ER+); experiment: as above; settings: Tamoxifen 100 μM, 16 hours
# Text: as §1, §2, §3, §4
# [4] = tested on: MDA-MB-468 (ER−); experiment: as above; settings: Tamoxifen 100 μM, 16 hours
# Text: as §1, §2, §3, §4
# [5] = tested on: cathepsin B in normal and nephropathic cystinotic fibroblasts; experiment: Cathepsin B localisation by immunohistochemistry; settings: after TNF-a exposure; Lysotracker red and anti-cathepsin B staining
# Procedure: Cells were stained by Lysotracker® Red stain (Molecular Probes) for 5 minutes at room temperature, washed twice in PBS, and then fixed in 4% formalin for 1 hour. Slides were immersed in blocking buffer (PBS, pH 7.2, 0.5% Carnation® dry milk, 0.1% Triton® X-100 reagent) for 20 minutes at room temperature, washed twice in PBS, and then incubated with primary antibody (anti-cathepsin B, Santa Cruz Biotechnologies) diluted 1:100 for 2 hours at room temperature, followed by incubation with secondary antibody (FITC-conjugated rabbit anti-goat, Santa Cruz Biotechnologies), at 4° C. overnight. Slides were washed twice with PBS and then sealed with cover slips and viewed using a Leica® DMRX deconvoluting microscope.
# To substantiate that lysosomes are perneabilized by TNF-a (Guicciardi M, 2000J. Clin. Invest., 106:1127-1137) under these conditions, cathepsin B (a lysosomal cysteine protease) was localized by immunohistochemistry in normal and nephropathic cystinotic cells before and after induction of apoptosis. Fibroblasts were maintained under normal culture conditions, exposed to TNF-a, loaded with Lysotracker® red reagent, fixed, and stained for cathepsin B using an anti-cathepsin B antibody. Photographs were made via a deconvoluting microscope.
# Lysosomes were identified with Lysotracker red dye. […]
# [6] = tested on: nephropathic cystinotic fibroblasts (AVG of 3); experiment: Apoptosis by apoptotic triggers, CaspACE assay; settings: TNF-a 30 ng/mL with actinomycin D 2.5 μg/mL for 16 hours, AVG of 3 nephropathic lines
# Procedure: (§5) Normal and cystinotic fibroblasts were purchased from the Coriell Mutant Cell Repository, and cultured in Coon modification of Ham F12 medium, supplemented with 10% fetal calf serum (FCS). Renal proximal tubule epithelial (RPTE; Biowhittaker Corp.) were cultured in renal epithelial basal medium supplemented with one Singlequots™ kit (Biowhittaker) per 500 mL to make renal epithelial growth media (REGM, Biowhittaker). Fibroblasts and RPTE were maintained in a 5% carbon dioxide, 95% air, humidified incubator at 37° C. (Thoene J. G. et al, 1976 J. Clin. Invest, 58:180-189).
# (§6) Induction of apoptosis and assays for its detection were performed using commercially available reagents. Normal and cystinotic fibroblasts were matched for passage number (±3) and cell density, and then exposed to an apoptotic trigger. One apoptotic trigger used was TNF-a (30 ng/mL) with actinomycin D (2.5 μg/mL) for 16 hours. Another trigger was anti-Fas antibody (500 ng/mL) with actinomycin D (2.5 μg/mL) for 16 hours. A third trigger to induce apoptosis in the cells was Ultraviolet B light (60 mJ). See, e.g., previously described protocols of Aggarwal B B, 1992 Immunol. Ser., 56:61-78; Higuchi M. et al, 1995 J. Immunol. Meth., 178:173-181; Itoh N, et al, 1991 Cell, 66:233-243; Itoh N. et al, 1993 J. Biol. Chem., 268:10932-10937. Serum withdrawal was also used as a apoptotic stimulus (Lieberthal W, et al, 1998 Am. J. Physiol. 275:F691-F702; Verzola D. et al, 2001 Exp Nephrol., 9:366-371; Iglesias J. et al, 1999 Am. J. Physiol. 277:F711-F712; Kulkarni G V, et al, 1994 J. Cell Sci., 107:1169-1179), in which case the cells were incubated in F12 medium without serum for 24 hours and then analyzed for apoptosis.
# (§7) 1. The CaspACE Assay • CaspACE (Promega) is an FITC-conjugated cell-permeable form of the pan-caspase inhibitor zVAD-Fmk, which binds to activated caspase(s). Cells were incubated in FITC-VAD-Fmk-containing medium (10 μM for 30 minutes at 37° C.), washed, and then fixed in 10% buffered formalin (30 minutes at room temperature) before analysis. The cells were visually enumerated by fluorescence microscopy, scoring a minimum of five fields (250 to 300 cells) for fluorescence in triplicate followed by counting all cells in the same field by light microscopy, with a minimum of 750 cells scored per condition. The apoptosis rate is the total number of cells that fluoresce divided by the total cells in the field.
# (§8) Apoptosis was induced in three nephropathic cystinotic, two normal, one intermediate cystinotic, and one ocular cystinotic fibroblast lines by three separate inducers. In one experiment, cells were treated with apoptosis inducers as indicated above. Apoptosis in these lines was assessed by CaspACE assay and analyzed by fluorescence microscopy. A minimum of 250 cells was scored per condition, in triplicate. Thus at least 750 cells were scored precondition. T-statistics: P<0.001 for average nephropathic versus average normal. P<0.05 for ocular versus nephropathic. P>0.05 for ocular versus normal, intermediate versus nephropathic, and intermediate versus normal.
# [7] = tested on: GM00379 intermediate cystinotic fibroblasts; experiment: Apoptosis by apoptotic triggers, CaspACE assay; settings: TNF-a 30 ng/mL with actinomycin D 2.5 μg/mL for 16 hours
# Procedure: as §5, §6, §7, §8
# [8] = tested on: GM00010 normal fibroblasts; experiment: Apoptosis by apoptotic triggers, CaspACE assay; settings: TNF-a 30 ng/mL with actinomycin D 2.5 μg/mL for 16 hours
# Procedure: as §5, §6, §7, §8
# [9] = tested on: GM00008 nephropathic cystinotic fibroblasts; experiment: Apoptosis by apoptotic triggers, CaspACE assay; settings: TNF-a 30 ng/mL with actinomycin D 2.5 μg/mL for 16 hours
# Procedure: as §5, §6, §7, §8
# [10] = tested on: normal fibroblasts (AVG of 2); experiment: Apoptosis by apoptotic triggers, CaspACE assay; settings: TNF-a 30 ng/mL with actinomycin D 2.5 μg/mL for 16 hours, AVG of 2 normal lines
# Procedure: as §5, §6, §7, §8
# [11] = tested on: GM08761 ocular cystinotic fibroblasts; experiment: Apoptosis by apoptotic triggers, CaspACE assay; settings: TNF-a 30 ng/mL with actinomycin D 2.5 μg/mL for 16 hours
# Procedure: as §5, §6, §7, §8
# [12] = tested on: GM05399 normal fibroblasts; experiment: Apoptosis by apoptotic triggers, CaspACE assay; settings: TNF-a 30 ng/mL with actinomycin D 2.5 μg/mL for 16 hours
# Procedure: as §5, §6, §7, §8
# [13] = tested on: GM00760 nephropathic cystinotic fibroblasts; experiment: Apoptosis by apoptotic triggers, CaspACE assay; settings: TNF-a 30 ng/mL with actinomycin D 2.5 μg/mL for 16 hours
# Procedure: as §5, §6, §7, §8
# [14] = tested on: GM00046 nephropathic cystinotic fibroblasts; experiment: Apoptosis by apoptotic triggers, CaspACE assay; settings: TNF-a 30 ng/mL with actinomycin D 2.5 μg/mL for 16 hours
# Procedure: as §5, §6, §7, §8
# [15] = tested on: nephropathic cystinotic fibroblasts (AVG of 3); experiment: Apoptosis by apoptotic triggers, TUNEL assay; settings: TNF-a 30 ng/mL with actinomycin D 2.5 μg/mL for 16 hours, AVG of 3 nephropathic lines
# Procedure: as §5, §6
# (§9) 2. TUNEL Assay • The TUNEL assay employs terminal deoxynucleotidyl transferase (TdT) to label the ends of double stranded DNA breaks, which occur in apoptotic cells, with FITC-conjugated dUTP. Cells were fixed in 4% buffered formalin, washed, incubated in permeabilization solution (0.1% Triton X-100 in 0.1% Na Citrate) for 2 minutes on ice and then stained with 25 μL of TdT/45 μL of labeled dNTP mix for 40 minutes at 37° C. The cells were visually enumerated by fluorescence microscopy, scoring a minimum of five fields (250 to 300 cells) for fluorescence in triplicate followed by counting all cells in the same field by light microscopy, with a minimum of 750 cells scored per condition. The apoptosis rate is the total number of cells that fluoresce divided by the total cells in the field.
# (§10) In another experiment, cells were treated with apoptosis inducers as indicated, stained with TUNEL reagent, and analyzed by florescence microscopy. A minimum of 250 cells were scored per conditions in triplicate. […] P>0.05 for ocular versus normal and intermediate; P=0.01 for ocular versus nephropathic.
# [16] = tested on: GM00379 intermediate cystinotic fibroblasts; experiment: Apoptosis by apoptotic triggers, TUNEL assay; settings: TNF-a 30 ng/mL with actinomycin D 2.5 μg/mL for 16 hours
# Procedure: as §5, §6, §9, §10
# [17] = tested on: GM00010 normal fibroblasts; experiment: Apoptosis by apoptotic triggers, TUNEL assay; settings: TNF-a 30 ng/mL with actinomycin D 2.5 μg/mL for 16 hours
# Procedure: as §5, §6, §9, §10
# [18] = tested on: GM00008 nephropathic cystinotic fibroblasts; experiment: Apoptosis by apoptotic triggers, TUNEL assay; settings: TNF-a 30 ng/mL with actinomycin D 2.5 μg/mL for 16 hours
# Procedure: as §5, §6, §9, §10
# [19] = tested on: normal fibroblasts (AVG of 2); experiment: Apoptosis by apoptotic triggers, TUNEL assay; settings: TNF-a 30 ng/mL with actinomycin D 2.5 μg/mL for 16 hours, AVG of 2 normal lines
# Procedure: as §5, §6, §9, §10
# [20] = tested on: GM08761 ocular cystinotic fibroblasts; experiment: Apoptosis by apoptotic triggers, TUNEL assay; settings: TNF-a 30 ng/mL with actinomycin D 2.5 μg/mL for 16 hours
# Procedure: as §5, §6, §9, §10
# [21] = tested on: GM05399 normal fibroblasts; experiment: Apoptosis by apoptotic triggers, TUNEL assay; settings: TNF-a 30 ng/mL with actinomycin D 2.5 μg/mL for 16 hours
# Procedure: as §5, §6, §9, §10
# [22] = tested on: GM00760 nephropathic cystinotic fibroblasts; experiment: Apoptosis by apoptotic triggers, TUNEL assay; settings: TNF-a 30 ng/mL with actinomycin D 2.5 μg/mL for 16 hours
# Procedure: as §5, §6, §9, §10
# [23] = tested on: GM00046 nephropathic cystinotic fibroblasts; experiment: Apoptosis by apoptotic triggers, TUNEL assay; settings: TNF-a 30 ng/mL with actinomycin D 2.5 μg/mL for 16 hours
# Procedure: as §5, §6, §9, §10
compound,measurement,setting,value
"CC/C(=C(\c1ccccc1)c1ccc(OCCN(C)C)cc1)c1ccccc1 [Tamoxifen, tamoxifen, reference compound]",percent of apoptotic cells (±S.D.),[1],98.92 ± 0.99%
same,percent of apoptotic cells (±S.D.),[2],98.47 ± 0.53%
same,percent of apoptotic cells (±S.D.),[3],99.91 ± 0.08%
same,percent of apoptotic cells (±S.D.),[4],90.37 ± 1.70%
TNF-a,localisation of cathepsin B,[5],translocation of cathepsin B from a lysosomal location to a diffuse cytosolic location
same,% Apoptosis,[6],14.8%
same,% Apoptosis,[7],11.4%
same,% Apoptosis,[8],9.2%
same,% Apoptosis,[9],14.9%
same,% Apoptosis,[10],7.8%
same,% Apoptosis,[11],8.2%
same,% Apoptosis,[12],6.3%
same,% Apoptosis,[13],13.5%
same,% Apoptosis,[14],16.1%
same,% Apoptosis,[15],17.2%
same,% Apoptosis,[16],8.2%
same,% Apoptosis,[17],12.8%
same,% Apoptosis,[18],17.1%
same,% Apoptosis,[19],12.1%
same,% Apoptosis,[20],5.5%
same,% Apoptosis,[21],11.4%
same,% Apoptosis,[22],19.3%
same,% Apoptosis,[23],15.3* %
